According to patent US20040229246A1, “Diagnostic markers for therapeutic treatment” (Can-Fite Biopharam Ltd., priority 2002, published 2004):

What was measured:
[1] = system: A3AR, A2AR, PI3K, PKB/Akt, IKKα/β, NF-κB, TNF-α, GSK-3β, caspase-3; assay: Western blot of A3AR and downstream signaling proteins in DLN and synovial tissue of AIA rats; type: in vivo
Description: AIA in Rats: Female Lewis rats, aged 8-12 weeks, obtained from Harlan Laboratories (Jerusalem, Israel), were injected subcutaneously (s.c.) at the tail base with 100 μl of suspension composed of incomplete Freund's adjuvant (IFA) with 10 mg/ml heat killed Mycobacterium tuberculosis, (Mt) H37Ra, (Difco, Detroit, USA). To assess the clinical disease activity score, the animals were inspected every second day for clinical arthritis. The scoring system ranged from 0-4 of each limb: 0-no arthritis; 1-redness or swelling of one toe/finger joint; 2-redness and swelling of more than one toe/finger joints; 3-the ankle and tarsal-metatarsal joints involvement; 4-entire paw redness or swelling. The arthritic score was calculated by adding the four individual legs' score to a maximum of 16. For histological scoring, Animals were sacrificed, the legs were removed up to the knee level, fixed in 10% formaldehyde, decalcified, dehydrated, paraffin-embedded, cut into 4 μm sections and stained by Hematoxylin-Eosin. The assessment of all pathologic findings were performed blind using semi-quantitative grading scales of 0 to 4 for the following parameters: a) extent of inflammatory cells' infiltration to the joint tissues; b) synovial lining cell hyperplasia; c) pannus formation; and d) joint cartilage layers destruction. A fifth parameter, bone damage and erosion, was graded 0-5: 0-normal; 1-minimal loss of cortical bone at a few sites; 2-mild loss of cortical trabecular bone; 3-moderate loss of bone at many sites; 4-marked loss of bone at many sites; 5-marked loss of bone at many sites with fragmenting and full thickness penetration of inflammatory process or pannus into the cortical bone The mean of all the histological parameters scores were designated “Histology Score”. TNF-α was measured in synovia, DLN and spleen tissues derived from control and CF101 treated rats. To detect the level of expression of TNF-α, WB analysis was performed. Spleen and DLN mononuclear cells and synovial tissue were rinsed with ice-cold PBS and transferred to ice-cold lysis buffer (TNN buffer, 50 mM Tris buffer pH=7.5, 150 mM NaCl, NP 40 0.5% for 20 minutes). Cell debris was removed by centrifugation for 10 minutes, at 7500 g. The supernatant was utilized for WB analysis. Protein concentrations were determined using the Bio-Rad protein assay dye reagent. Equal amounts of the sample (50 μg) were separated by SDS-PAGE, using 12% polyacrylamide gels. The resolved proteins were then electro-blotted onto nitrocellulose membranes (Schleicher & Schuell, Keene, NH, USA). Membranes were blocked with 1% bovine serum albumin and incubated with polyclonal goat anti-rat TNF-α antibodies (dilution 1:1000) (Santa Cruz Biotechnology Inc., CA, USA) for 24 hours at 4° C. Blots were then washed and incubated with rabbit anti-goat polyclonal antibodies for 1 hour at room temperature. Bands were recorded using BCIP/NBT color development kit (Promega, Madison, Wis., USA). Densitometry of protein expression was normalized against β-actin and expressed as % of control.
Adjuvant induced arthritis (AIA) was induced in rats as described above. Rats were treated orally twice daily with either (i) vehicle (these rats serving as control), (ii) 10 μg/kg IB-MECA or with (ii) the specific A3AR […] MRS 1220 followed 30 minutes later by IB-MECA. The […] were sacrificed on day 28 for histological scoring and measurement of signaling proteins and TNF-α.

[2] = system: PKAc, PKB/Akt, β-catenin, c-myc, cyclin D1, NF-κB, GSK-3β; assay: Immunoblot analysis of protein extracts of HCT-116 human colon carcinoma cells; type: cell-based; settings: HCT-116 cells, compared to control
Description: (§1) To detect the level of expression of the A3AR proteins Western blot analysis was performed. Cells were incubated in the presence and absence of IB-MECA (10 nM), MRS1523 (10 nM), Forskolin (50 nM), 8 Br cAMP (100 μM), Cycloheximide 20 μg/ml or MG 132 (20 nM) for different time periods at 37° C. Cells were then rinsed with ice-cold PBS and transferred to ice-cold lysis buffer (TNN buffer, 50 mM Tris buffer pH=7.5, 150 mM NaCl, NP 40). In the experiment examining the effect of trypsin on A3AR expression, cells were incubated with 0.5 ml of 0.25% trypsin for 5 minutes. The trypsinized cells were washed again with ice-cold PBS, harvested by centrifugation and subjected to lysis in TNN buffer. Cell debris was removed by centrifugation for 10 minutes, at 7500 xg. The supernatant was utilized for Western Blot analysis. Protein concentrations were determined using the Bio-Rad protein assay dye reagent. Equal amounts of the sample (50 μg) were separated by SDS-PAGE, using 12% polyacrylamide gels. The resolved proteins were then electroblotted onto nitrocellulose membranes (Schleicher & Schuell, Keene, NH, USA). Membranes were blocked with 1% bovine serum albumin and incubated with the desired primary antibody (dilution 1:1000) for 24 hours at 4° C. Blots were then washed and incubated with a secondary antibody for 1 hour at room temperature. Bands were recorded using BCIP/NBT color development kit (Promega, Madison, W1, USA). Data presented in the different figures are representative of at least three different experiments.
The effect of IB-MECA on key proteins downstream to A3AR activation in HCT-116 human colon carcinoma cells was also examined in a manner similar to that performed with melanoma cells (see above). FIG. 7 presents Immunoblot analysis of protein extracts derived from colon carcinoma cell, wherein treatment with IB-MECA (right lane) caused down-regulation of PKAc, PKB/Akt, β-catenin, c-myc and cyclin D1 and NF-κB and up-regulation of GSK-3β expression level as compared to control (left lane).

[3] = system: PKA, PKB/Akt, GSK-3β, β-catenin, cyclin D1, c-myc, NF-κB; assay: Western blot of cell growth regulatory proteins in B16-F10 melanoma tumor lesions; type: in vivo, mice
Description: as §1
Melanoma: C57BL/6J, male mice (Harlan Laboratories, Jerusalem, Israel) aged 2 months, weighing an average of 25 g were used. B16-F10 (2.5×105) melanoma cells were subcutaneously (s.c.) injected to the flank of the mice. IB-MECA at a dose of 100 μg/kg body weight was administered orally once daily, starting 24 hours after tumor cells' inoculation. The control group was treated daily, orally, with the vehicle only. Mice were sacrificed after 15 days, tumor lesions were excise and protein was extracted for measurements as described above. The tumor size (width (W) and length (L)) was measured with a caliber and calculated according to the following formula: Tumor Size =(W)2xL/2. Each group contained 15 mice and the study was repeated 3 times.

## CNC(=O)[C@H]1O[C@@H](n2cnc3c(NCc4cccc(I)c4)ncnc32)[C@H](O)[C@@H]1O [IB-MECA, 1-deoxy-1-[6[[(3-iodophenyl)methyl]amino]-9H-purine-9-yl]-N-methyl-β-D-ribofura-nuronaminde]
[1]; DLN
  GSK-3β level: up-regulation
  PI3K level: down-regulation
  caspase-3 level: up-regulation
[1]; DLN and synovial tissue
  IKKα/β level: down-regulation
  NF-κB level: down-regulation
  TNF-α level: down-regulation
[1]; DLN, Western blot
  level of the A2 adenosine receptor (A2AR): no effect
  level of the A3AR: down-regulation
[1]; DLN, protein expression and activity
  PKB/Akt level: down-regulation
[2]
  GSK-3β expression level: up-regulation
  NF-κB level: down-regulation
  PKAc level: down-regulation
  PKB/Akt level: down-regulation
  c-myc level: down-regulation
  cyclin D1 level: down-regulation
  β-catenin level: down-regulation
[3]
  NF-κB level: down-regulated
  PKA level: decreased
  PKB/Akt level: decreased
  c-myc level: down-regulated
  cyclin D1 level: down-regulated
  total GSK-3β level: increase
  β-catenin level: decrease
